For 22 compounds, IC50 results are on record in patent US20260184687A1, “DIHYDROINDENE DERIVATIVES AS MALT1 INHIBITORS” (C4X Discovery Limited, priority 2022, published 2026).

In the experiment the test system is IL-2 release from stimulated Jurkat cells. The experiment in a line: Human IL-2 Release Phenotypic Assay (Assay 3). The experiment is classed as cell-based. The following applies: Jurkat cells (clone E6-1), 200 ng/mL PMA + 300 ng/mL ionomycin, IL-2 by ELISA. How it is done:
This assay measured the inhibition by MALT1 inhibitors of the IL-2 release from stimulated Jurkat cells, a human immortalized T lymphocyte cell line. IL-2 production from Jurkat cells is regulated by activation of NFκB signalling, which is in turn regulated by MALT1 protease activity.
Jurkat cells (clone E6-1, ATCC) were cultured in RPMI1640 supplemented with 10% (v/v) FBS and 1% (v/v) penicillin/streptomycin (100× liquid stocks). Cells were seeded in 96-well white tissue culture-treated plates (Perkin Elmer) at 50 000 cells/well and incubated overnight at 37° C., 5% CO2. Test compounds in DMSO at half-log dilutions were added to the cells and incubated for 30 mins. Final DMSO concentration was 0.5%. Cells were then stimulated with 200 ng/mL PMA+300 ng/mL ionomycin and incubated for 48 hours. […] IC50 values were calculated using GraphPad Prism using 4-parameter non-linear regression curve fit.
(In general: An ELISA detects its analyte on a solid surface through an enzyme-linked reagent.)

As for `CN(C(=O)c1cc[nH]c(=O)c1)C(c1ccc(NC2Cc3ccccc3C2(C)C)nc1)C(F)(F)F` (single isomer, unassigned) [Example 100, N-(1-(6-((1,1-Dimethyl-2,3-dihydro-1H-inden-2-yl)amino)pyridin-3-yl)-2,2,2-trifluoroethyl)-N-methyl-2-oxo-1,2-dihydropyridine-4-carboxamide], the IC50 (48 hours) was determined as 850 nM. For `CN(C(=O)[C@@H]1CNC(=O)C1)[C@@H](c1ccc(N[C@H]2Cc3ccccc3C2(C)C)cn1)C(F)(F)F` [Example 160, (S)—N—((S)-1-(5-(((S)-1,1-Dimethyl-2,3-dihydro-1H-inden-2-yl)amino)pyridin-2-yl)-2,2,2-trifluoroethyl)-N-methyl-5-oxopyrrolidine-3-carboxamide], the IC50 (Homo sapiens, Jurkat, 48 h) turned out to be 180 nM. Consider `CN(C(=O)c1cc[nH]c(=O)c1)C(c1ccc(NC2Cc3ccccc3C2(C)C)nc1)C(F)(F)F` (single isomer, unassigned) [Example 101, N-(1-(6-((1,1-Dimethyl-2,3-dihydro-1H-inden-2-yl)amino)pyridin-3-yl)-2,2,2-trifluoroethyl)-N-methyl-2-oxo-1,2-dihydropyridine-4-carboxamide], for which, for the setting “48 hours”, the IC50 was 2640 nM.

With `CN(C(=O)[C@@H]1CCC(=O)NC1)[C@@H](c1ccc(N[C@H]2Cc3ccccc3C2(C)C)nc1)C(F)(F)F` [Example 218, (R)—N—((S)-1-(6-(((S)-1,1-dimethyl-2,3-dihydro-1H-inden-2-yl)amino)pyridin-3-yl)-2,2,2-trifluoroethyl)-N-methyl-6-oxopiperidine-3-carboxamide], where the note is “Homo sapiens, Jurkat, 48 h”, the IC50 is 430 nM. The same measure, in the same setting: under `CC(=O)N1CC[C@@H](C(=O)N(C)[C@@H](c2ccc(N[C@H]3Cc4ccccc4C3(C)C)cn2)C(F)(F)F)C1` [Example 192, (R)-1-Acetyl-N—((S)-1-(5-(((S)-1,1-dimethyl-2,3-dihydro-1H-inden-2-yl)amino)pyridin-2-yl)-2,2,2-trifluoroethyl)-N-methylpyrrolidine-3-carboxamide] stands 440 nM. Consider `CN(C(=O)N1CCC(C)(O)CC1)[C@@H](c1ccc(NC2Cc3ccccc3C2(C)C)cc1)C(F)(F)F` (single isomer, unassigned) [Example 17], for which the IC50 (48 hours) stood at 2950 nM. Take `CN(C(=O)[C@@H]1C[C@@H](O)CN1S(C)(=O)=O)[C@@H](c1ccc(N[C@H]2Cc3ccccc3C2(C)C)cn1)C(F)(F)F` [Example 244, (2S,4R)—N—((S)-1-(5-(((S)-1,1-Dimethyl-2,3-dihydro-1H-inden-2-yl)amino)pyridin-2-yl)-2,2,2-trifluoroethyl)-4-hydroxy-N-methyl-1-(methylsulfonyl)pyrrolidine-2-carboxamide]: under “Homo sapiens, Jurkat, 48 h”, the IC50 worked out at 270 nM. The same measure, in the same setting: under `CNC(=O)[C@H]1C[C@@H](C(=O)N(C)[C@@H](c2ccc(N[C@H]3Cc4ccccc4C3(C)C)cn2)C(F)(F)F)C1` [Example 240, (1,3-cis)-N^1—((S)-1-(5-(((S)-1,1-Dimethyl-2,3-dihydro-1H-inden-2-yl)amino)pyridin-2-yl)-2,2,2-trifluoroethyl)-N^1,N^3-dimethylcyclobutane-1,3-dicarboxamide] stands 330 nM; under `CC(=O)N[C@H]1C[C@H](C(=O)N(C)[C@@H](c2ccc(N[C@H]3Cc4ccccc4C3(C)C)cn2)C(F)(F)F)C1` [Example 186, (1,3-trans)-3-Acetamido-N—((S)-1-(5-(((S)-1,1-dimethyl-2,3-dihydro-1H-inden-2-yl)amino)pyridin-2-yl)-2,2,2-trifluoroethyl)-N-methylcyclobutane-1-carboxamide], 460 nM. Same read-out and setting: under `CN(C(=O)[C@H]1CCC(=O)NC1)[C@@H](c1ccc(N[C@H]2Cc3ccccc3C2(C)C)nc1)C(F)(F)F` [Example 219] stands 330 nM; under `CC(=O)N1CCC(C(=O)N(C)[C@@H](c2ccc(N[C@H]3Cc4ccccc4C3(C)C)cn2)C(F)(F)F)CC1` [Example 224, 1-Acetyl-N—((S)-1-(5-(((S)-1,1-dimethyl-2,3-dihydro-1H-inden-2-yl)amino)pyridin-2-yl)-2,2,2-trifluoroethyl)-N-methylpiperidine-4-carboxamide], 200 nM. Still for that read-out and setting: the figure for `Cc1cc2c(cc1C)CC(Nc1ccc([C@H](N(C)C(=O)C3CCS(=O)(=O)CC3)C(F)(F)F)nc1)C2` [Example 260, (S)—N-(1-(5-((5,6-Dimethyl-2,3-dihydro-1H-inden-2-yl)amino)pyridin-2-yl)-2,2,2-trifluoroethyl)-N-methyltetrahydro-2H-thiopyran-4-carboxamide 1,1-dioxide] is 860 nM; for `CN(C(=O)C1CCS(=O)(=O)CC1)[C@@H](c1ccc(NC2Cc3ccccc3C2)cc1)C(F)(F)F` [Example 3, (S)—N-(1-(4-((2,3-Dihydro-1H-inden-2-yl)amino)phenyl)-2,2,2-trifluoroethyl)-N-methyltetrahydro-2H-thiopyran-4-carboxamide 1,1-dioxide] it is 1940 nM.

On to `CN(C(=O)[C@H]1CNC(=O)C1)[C@@H](c1ccc(N[C@H]2Cc3ccccc3C2(C)C)cn1)C(F)(F)F` [Example 166, (R)—N—((S)-1-(5-(((S)-1,1-Dimethyl-2,3-dihydro-1H-inden-2-yl)amino)pyridin-2-yl)-2,2,2-trifluoroethyl)-N-methyl-5-oxopyrrolidine-3-carboxamide], for which the IC50 (Homo sapiens, Jurkat, 48 h) is 510 nM. Still for that read-out and setting: the figure for `CN(C(=O)[C@H]1C[C@@H](NS(C)(=O)=O)C1)[C@@H](c1ccc(N[C@H]2Cc3ccccc3C2(C)C)cn1)C(F)(F)F` [Example 241, (1,3-cis)-N—((S)-1-(5-(((S)-1,1-Dimethyl-2,3-dihydro-1H-inden-2-yl)amino)pyridin-2-yl)-2,2,2-trifluoroethyl)-N-methyl-3-(methylsulfonamido)cyclobutane-1-carboxamide] is 400 nM; for `CN(C(=O)CC1CCS(=O)(=O)CC1)[C@@H](c1ccc(N[C@H]2Cc3ccccc3C2(C)C)cn1)C(F)(F)F` [Example 196, N—((S)-1-(5-(((S)-1,1-Dimethyl-2,3-dihydro-1H-inden-2-yl)amino)pyridin-2-yl)-2,2,2-trifluoroethyl)-2-(1,1-dioxidotetrahydro-2H-thiopyran-4-yl)-N-methylacetamide] it is 860 nM; for `CC(=O)N1CC[C@H](C(=O)N(C)[C@@H](c2ccc(N[C@H]3Cc4ccccc4C3(C)C)cn2)C(F)(F)F)C1` [Example 169, (S)-1-Acetyl-N—((S)-1-(5-(((S)-1,1-dimethyl-2,3-dihydro-1H-inden-2-yl)amino)pyridin-2-yl)-2,2,2-trifluoroethyl)-N-methylpyrrolidine-3-carboxamide] it is 720 nM. On the same count and under the same terms, the figure for `CC(=O)N1C[C@H](O)C[C@H]1C(=O)N(C)[C@@H](c1ccc(N[C@H]2Cc3ccccc3C2(C)C)cn1)C(F)(F)F` [Example 183, (2S,4R)-1-Acetyl-N—((S)-1-(5-(((S)-1,1-dimethyl-2,3-dihydro-1H-inden-2-yl)amino)pyridin-2-yl)-2,2,2-trifluoroethyl)-4-hydroxy-N-methylpyrrolidine-2-carboxamide] is 510 nM; for `CN(C(=O)[C@H]1C[C@H](NS(C)(=O)=O)C1)[C@@H](c1ccc(N[C@H]2Cc3ccccc3C2(C)C)cn1)C(F)(F)F` [Example 222, (1,3-trans)-N—((S)-1-(5-(((S)-1,1-Dimethyl-2,3-dihydro-1H-inden-2-yl)amino)pyridin-2-yl)-2,2,2-trifluoroethyl)-N-methyl-3-(methylsulfonamido)cyclobutane-1-carboxamide] it is 260 nM. The same measure, in the same setting: the figure for `CC(=O)N[C@H]1C[C@@H](C(=O)N(C)[C@@H](c2ccc(N[C@H]3Cc4ccccc4C3(C)C)cn2)C(F)(F)F)C1` [Example 182, (1,3-cis)-3-Acetamido-N—((S)-1-(5-(((S)-1,1-dimethyl-2,3-dihydro-1H-inden-2-yl)amino)pyridin-2-yl)-2,2,2-trifluoroethyl)-N-methylcyclobutane-1-carboxamide] is 400 nM. As to `CN(C(=O)N1CCC(C)(O)CC1)[C@@H](c1ccc(NC2Cc3ccccc3C2(C)C)cc1)C(F)(F)F` (single isomer, unassigned) [Example 16], the IC50 (48 hours) came out at 250 nM. As for `CNC(=O)[C@H]1C[C@H](C(=O)N(C)[C@@H](c2ccc(N[C@H]3Cc4ccccc4C3(C)C)cn2)C(F)(F)F)C1` [Example 247, (1,3-trans)-N—((S)-1-(5-(((S)-1,1-Dimethyl-2,3-dihydro-1H-inden-2-yl)amino)pyridin-2-yl)-2,2,2-trifluoroethyl)-N^1,N^3-dimethylcyclobutane-1,3-dicarboxamide], the IC50 (Homo sapiens, Jurkat, 48 h) was determined as 170 nM.

For orientation: IC50 means the concentration at which inhibition is half-maximal.
